{
  "source": "patent US20250064804A1",
  "about": "“COMBINATION THERAPY FOR TREATING ABNORMAL CELL GROWTH” (Verastem, Inc., priority 2021, published 2025)",
  "key": {"[1]": {"test_system": "Human KRAS mutant pancreatic cancer cell lines stably expressing a tandem fluorescent GFP-LC3-RFP-LC3ΔG reporter", "assay": "Autophagic flux (GFP-LC3-RFP-LC3ΔG reporter, flow cytometry)", "type": "cell-based", "settings": "1 μM avutometinib, 24 hours, vs vehicle (DMSO); all 3 cell lines tested; 2D conditions", "procedure": "Human KRAS mutant pancreatic cancer cell lines stably expressing a tandem fluorescent GFP-LC3-RFP-LC3ΔG reporter were grown in 2D conditions. Briefly, cells were seeded in 96-well plates and after an overnight incubation (17-22 hours), cells were treated with 1 μM of the RAF/MEK clamp avutometinib (VS-6766) for 24 hours. Following treatment, cells were collected and changes in autophagic flux were measured by flow cytometry. Autophagic flux was quantified by calculating the ratio of RFP/GFP in cell lines tested. Autophagic flux was assessed in a panel of 3 human KRAS mutant pancreatic cancer cell lines stably expressing a tandem fluorescent GFP-LC3-RFP-LC3ΔG reporter (FIG. 1). […] In FIG. 1, human KRAS mutant pancreatic cancer cell lines stably expressing a tandem fluorescent GFP-LC3-RFP-LC3ΔG reporter were treated with vehicle (DMSO) or avutometinib for 24 hours. Following treatment, cells were collected and changes in autophagic flux were measured by flow cytometry. Autophagic flux was quantified by calculating the ratio of RFP/GFP in cell lines tested."}, "[2]": {"test_system": "human KRAS mutant pancreatic cancer cell lines", "assay": "Proliferation assay (live cell counting) with Bliss synergy analysis", "type": "cell-based", "settings": "5 days, panel of 4 cell lines, 2D conditions", "procedure": "Parental human KRAS mutant pancreatic cancer cell lines were grown in 2D conditions. Briefly, cells were seeded in 96-well plates and after an overnight incubation (17-22 hours), cells were treated with the RAF/MEK clamp avutometinib (VS-6766)+/− the autophagy pathway inhibitor chloroquine (CQ) or apilimod (AP) for 5 days. Following drug treatment, live cell counting was performed and plotted to quantify effects on proliferation. Bliss synergy analysis were performed to calculate synergy scores between avutometinib+chloroquine and avutometinib+apilimod.\nProliferation assays were performed to determine whether chloroquine (CQ) or apilimod (AP) augmented the anti-proliferative activity of avutometinib in a panel of 4 human KRAS mutant pancreatic cancer cell lines (FIG. 2). Following drug treatment, live cell counting was performed and plotted to quantify effects on proliferation. Heatmaps indicating BLISS synergy scores are shown (Red=synergy, white=additivity, green=antagonism)."}},
  "data": [
    {"molecule": "CNS(=O)(=O)Nc1nccc(Cc2c(C)c3ccc(Oc4ncccn4)cc3oc2=O)c1F", "note": "[avutometinib]", "values": [
      {"measurement": "increase of autophagic flux (ratio of RFP/GFP)", "setting": "[1]", "result": "two-to six"},
      {"measurement": "Bliss synergy with apilimod in reducing cell viability", "setting": "[2]; avutometinib + apilimod (AP)", "result": "synergistic"},
      {"measurement": "Bliss synergy with chloroquine in reducing cell viability", "setting": "[2]; avutometinib + chloroquine (CQ)", "result": "synergistic"}
    ]}
  ]
}
